Assays:
[1] = test system: cultured human mast cells (CHMC); experiment: CHMC low cell density IgE activation: tryptase assay; assay type: cell-based; conditions: low cell density CHMC, IgE activation
How it was run: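 Low-density CHMC, 1000-1500 cells/well in MT; 1 hr 37 °C; anti-IgE challenge 30 min 37 °C; supernatant tryptase via fluorogenic substrate, 30 min RT.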

[2] = test system: cultured human mast cells (CHMC); experiment: CHMC low cell density ionomycin activation: tryptase assay; assay type: cell-based; conditions: low cell density CHMC, 3 pt, read-out: LD Tryptase, CHMC, Iono, 3 pt
[3] = tryptase release, 3 pt, read-out: LD Tryptase, CHMC, IgE, 3 pt
[4] = tryptase release, 8 pt, read-out: LD Tryptase, CHMC, IgE, 8 pt
[5] = Homo sapiens, Mast cell, tryptase release, 3 pt, read-out: LD Tryptase, CHMC, IgE, 3 pt
[6] = Homo sapiens, Mast cell, tryptase release
[7] = Homo sapiens, Mast cell, tryptase release, 8 pt, read-out: LD Tryptase, CHMC, IgE, 8 pt
[8] = Homo sapiens, Mast cell, tryptase, 3 pt, read-out: LD Tryptase, CHMC, IgE, 3 pt
[9] = Homo sapiens, Mast cell, tryptase
[10] = tryptase, 3 pt, read-out: LD Tryptase, CHMC, IgE, 3 pt
[11] = tryptase, 8 pt, read-out: LD Tryptase, CHMC, IgE, 8 pt
[12] = Homo sapiens, Mast cell, tryptase, 8 pt, read-out: LD Tryptase, CHMC, IgE, 8 pt

Work on `CN1CCOc2ccc(Nc3nc(Nc4ccc(-c5ncco5)cc4)ncc3F)cc21` [Compound 243, N4-(2,3-Dihydro-4-methyl-2H-benz[1,4]oxazin-6-yl)-5-fluoro-N2-[4-(oxazol-2-yl)phenyl]-2,4-pyrimidinediamine] yielded an IC50 [1, 3] of under 10 µM, an IC50 [1, 4] of under 10 µM and an IC50 ([2]; tryptase release) of over 10 µM.
With `CN1C(=O)COc2cc(Nc3nc(Nc4ccc(-c5ncco5)cc4)ncc3F)ccc21` [Compound 244] the IC50 [1, 5] was over 10 µM and the IC50 [2, 6] was over 10 µM.
`CN1C(=O)COc2ccc(Nc3nc(Nc4ccc(-c5ncco5)cc4)ncc3F)cc21` [Compound 245] showed an IC50 [1, 5] of over 10 µM and an IC50 [2, 6] of over 10 µM.
`O=C1COc2ccc(Nc3nc(Nc4cccc(-c5cnco5)c4)ncc3F)cc2N1` [Compound 246] gave an IC50 [1, 5] of under 10 µM, an IC50 [1, 7] of under 10 µM and an IC50 [2, 6] of over 10 µM.
`C[C@@H]1Oc2ccc(Nc3nc(Nc4cccc(-c5cnco5)c4)ncc3F)cc2NC1=O` [Compound 247] gave an IC50 [1, 5] of under 10 µM, an IC50 [1, 7] of under 10 µM and an IC50 [2, 6] of over 10 µM.
Compound `O=C1Nc2ccc(Nc3nc(Nc4cccc(-c5ncco5)c4)ncc3F)cc2OC1CCO` (stereo not drawn) [Compound 248] has an IC50 [1, 5] of under 10 µM, an IC50 [1, 7] of under 10 µM and an IC50 [2, 6] of over 10 µM.
In the case of `O=C1Nc2ccc(Nc3nc(Nc4ccc(-c5cnco5)cc4)ncc3F)cc2OC1CCO` (stereo not drawn) [Compound 249], the IC50 [1, 5] is reported as under 10 µM, the IC50 [1, 7] is reported as over 10 µM and the IC50 [2, 6] is reported as over 10 µM.
For `C[C@H]1Oc2ccc(Nc3nc(Nc4cccc(-c5cocn5)c4)ncc3F)cc2NC1=O` [Compound 250], the IC50 [1, 5] was under 10 µM, the IC50 [1, 7] was under 10 µM and the IC50 [2, 6] was under 10 µM.
In the case of `C[C@@H]1Oc2ccc(Nc3nc(Nc4cccc(-c5cocn5)c4)ncc3F)cc2NC1=O` [Compound 251], the IC50 [1, 5] is reported as under 10 µM, the IC50 [1, 7] is reported as under 10 µM and the IC50 [2, 6] is reported as over 10 µM.
Work on `COc1cc(Nc2ncc(F)c(Nc3ccc4c(c3)NCC(CCO)O4)n2)cc(OC)c1` (stereo not drawn) [Compound 253, N4-[3,4-Dihydro-2-(2-hydroxyethyl)-2H,4H-benz[1,4]oxazin-6-yl]-N2-(3,5-dimethoxyphenyl)-5-fluoro-2,4-pyrimidinediamine] yielded an IC50 [1, 3] of under 10 µM, an IC50 [1, 4] of under 10 µM and an IC50 ([2]; tryptase release) of over 10 µM.
Compound `CNC(=O)COc1cccc(Nc2ncc(F)c(Nc3ccc4c(c3)NC(=O)CS4)n2)c1` [Compound 254, 5-Fluoro-N2-[3-(N-methylamino)carbonylmethyleneoxyphenyl]-N4-(3-oxo-2H,4H-benzo[1,4]thiazin-6-yl)-2,4-pyrimidinediamine] has an IC50 [1, 3] of under 10 µM, an IC50 [1, 4] of under 10 µM and an IC50 ([2]; tryptase release) of over 10 µM.
Compound `Cc1cc(C)cc(Nc2ncc(F)c(Nc3ccc4c(c3)NCC(CCO)O4)n2)c1` (stereo not drawn) [Compound 255, N4-[2,3-Dihydro-2-(2-hydroxyethyl)-2H,4H-benz[1,4]oxazin-6-yl]-N2-(3,5-dimethylphenyl)-5-fluoro-2,4-pyrimidinediamine] has an IC50 [1, 3] of under 10 µM, an IC50 [1, 4] of under 10 µM and an IC50 ([2]; tryptase release) of over 10 µM.
With `COc1cc(Nc2ncc(F)c(Nc3ccc4c(c3)NC(=O)CS4)n2)cc(OC)c1` [Compound 256] the IC50 [1, 5] was under 10 µM, the IC50 [1, 7] was under 10 µM and the IC50 [2, 6] was over 10 µM.
`COc1ccc(Nc2ncc(F)c(Nc3ccc4c(c3)NC(=O)CS4)n2)cc1Cl` [Compound 257] was tested, and the IC50 [1, 5] was under 10 µM, the IC50 [1, 7] was under 10 µM and the IC50 [2, 6] was over 10 µM.
For `CNC(=O)COc1cccc(Nc2ncc(F)c(Nc3ccc4c(c3)NCCS4)n2)c1` [Compound 258, N4-(3,4-Dihydro-2H,4H-benzo[1,4]thiazin-6-yl)-5-fluoro-N2-[3-(N-methylamino)carbonylmethyleneoxyphenyl]-2,4-pyrimidinediamine], the IC50 [1, 3] was under 10 µM, the IC50 [1, 4] was under 10 µM and the IC50 ([2]; tryptase release) was over 10 µM.
Work on `CNC(=O)COc1cccc(Nc2ncc(F)c(Nc3ccc4c(c3)N(C)C(=O)CS4)n2)c1` [Compound 259, 5-Fluoro-N2-[3-(N-methylamino)carbonylmethyleneoxyphenyl]-N4-(4-methyl-3-oxo-2H-benzo[1,4]thiazin-6-yl)-2,4-pyrimidinediamine] yielded an IC50 [1, 3] of under 10 µM, an IC50 [1, 4] of under 10 µM and an IC50 ([2]; tryptase release) of over 10 µM.
Work on `COc1cc(Nc2ncc(F)c(Nc3ccc4c(c3)N(C)C(=O)CS4)n2)cc(OC)c1` [Compound 260] yielded an IC50 [1, 5] of under 10 µM, an IC50 [1, 7] of under 10 µM and an IC50 [2, 6] of over 10 µM.
For `NC(=S)c1cccc(Nc2ncc(F)c(Nc3ccc4c(c3)NC(=O)CO4)n2)c1` [Compound 261, N2-(3-Benzothioamide)-5-fluoro-N4-(3-oxo-2H,4H-benz[1,4]oxazin-6-yl)-2,4-pyrimidinediamine], the IC50 [1, 3] was under 10 µM and the IC50 ([2]; tryptase release) was over 10 µM.
`NC(=S)c1cccc(Nc2ncc(F)c(Nc3ccc4c(c3)NC(=O)C(CCO)O4)n2)c1` (stereo not drawn) [Compound 262, N2-(3-Benzothioamide)-5-fluoro-N4-[2-(2-hydroxyethyl)-3-oxo-2H,4H-benz[1,4]oxazin-6-yl]-2,4-pyrimidinediamine] showed an IC50 [1, 3] of under 10 µM and an IC50 ([2]; tryptase release) of over 10 µM.
For `COc1cc(Nc2nc(Nc3ccc4oc(C(=O)O)cc4c3)ncc2F)cc(OC)c1` [Compound 382], the IC50 [1, 8] was over 10 µM and the IC50 [2, 9] was over 10 µM.
`CNC(=O)COc1cccc(Nc2ncc(F)c(N(C)c3ccc4c(c3)OCCO4)n2)c1` [Compound 385, N4-(3,4-Ethylenedioxyphenyl)-5-fluoro-N4-methyl-N2-[3-(N-methylamino)carbonylmethyleneoxyphenyl]-2,4-pyrimidinediamine] was tested, and the IC50 [1, 10] was under 10 µM, the IC50 [1, 11] was under 10 µM and the IC50 ([2]; tryptase) was over 10 µM.
For `COc1cc(Nc2ncc(F)c(N(C)c3ccc4c(c3)OCCO4)n2)cc(OC)c1` [Compound 386], the IC50 [1, 8] was under 10 µM, the IC50 [1, 12] was under 10 µM and the IC50 [2, 9] was over 10 µM.
`Cc1cc(C)cc(Nc2ncc(F)c(N(C)c3ccc4c(c3)OCCO4)n2)c1` [Compound 387] showed an IC50 [1, 8] of under 10 µM and an IC50 [2, 9] of over 10 µM.
With `COc1cc(Nc2ncc(F)c(N(C)c3ccc4c(c3)NC(=O)C(C)(C)O4)n2)cc(OC)c1` [Compound 388] the IC50 [1, 8] was over 10 µM and the IC50 [2, 9] was over 10 µM.
`COc1cc(Nc2nc(Nc3cccc4cc(C(=O)NC(C)(C)CO)[nH]c34)ncc2F)cc(OC)c1` [Compound 389, N4-(3,5-Dimethoxyphenyl)-N2-[2-(N-1,1-dimethyl-2-hydroxyethylamino)carbonylindol-7-yl]-5-fluoro-2,4-pyrimidinediamine] showed an IC50 [1, 10] of under 10 µM and an IC50 ([2]; tryptase) of over 10 µM.
For `CN(c1ccc2c(c1)OCCO2)c1nc(Cl)ncc1F` [Compound 390], the IC50 [1, 8] was over 10 µM and the IC50 [2, 9] was over 10 µM.
For `Cc1cc(C)cc(Nc2ncc(F)c(N(C)c3ccc4c(c3)N(C)C(=O)C(C)(C)O4)n2)c1` [Compound 391], the IC50 [1, 8] was under 10 µM and the IC50 [2, 9] was under 10 µM.
Work on `COc1ccc(Nc2ncc(F)c(N(C)c3ccc4c(c3)N(C)C(=O)C(C)(C)O4)n2)cc1Cl` [Compound 392] yielded an IC50 [1, 8] of under 10 µM and an IC50 [2, 9] of under 10 µM.
`COc1cc(Nc2ncc(F)c(N(C)c3ccc4c(c3)N(C)C(=O)C(C)(C)O4)n2)cc(OC)c1` [Compound 393] gave an IC50 [1, 8] of under 10 µM and an IC50 [2, 9] of under 10 µM.
Work on `COC(=O)c1cc2cc(Nc3ncc(F)c(N(C)c4ccc5c(c4)OCCO5)n3)ccc2o1` [Compound 395] yielded an IC50 [1, 8] of under 10 µM, an IC50 [1, 12] of under 10 µM and an IC50 [2, 9] of under 10 µM.
For `Cc1cc(C)cc(Nc2ncc(F)c(Nc3ccc4c(c3)N(C)C(=O)C(C)(C)O4)n2)c1` [Compound 396], the IC50 [1, 8] was under 10 µM, the IC50 [1, 12] was under 10 µM and the IC50 [2, 9] was under 10 µM.
Work on `COc1cc(Nc2ncc(F)c(Nc3ccc4c(c3)N(C)C(=O)C(C)(C)O4)n2)cc(OC)c1` [Compound 397] yielded an IC50 [1, 8] of under 10 µM, an IC50 [1, 12] of under 10 µM and an IC50 [2, 9] of under 10 µM.
`CNC(=O)COc1cccc(Nc2ncc(F)c(N(C)c3cc(OC)cc(OC)c3)n2)c1` [Compound 398, N4-(3,5-Dimethoxyphenyl)-5-fluoro-N4-methyl-N2-[3-(N-methylamino)carbonylmethyleneoxyphenyl]-2,4-pyrimidinediamine] gave an IC50 [1, 10] of under 10 µM and an IC50 ([2]; tryptase) of over 10 µM.
With `COc1cc(Nc2ncc(F)c(N(C)c3cc(OC)cc(OC)c3)n2)cc(OC)c1` [Compound 400] the IC50 [1, 8] was under 10 µM and the IC50 [2, 9] was over 10 µM.
`COC(=O)c1cc2cc(Nc3ncc(F)c(N(C)c4cc(OC)cc(OC)c4)n3)ccc2o1` [Compound 401] gave an IC50 [1, 8] of under 10 µM and an IC50 [2, 9] of under 10 µM.
Work on `COc1cc(OC)cc(N(C)c2nc(Nc3ccc(OC)c(Cl)c3)ncc2F)c1` [Compound 404, N2-(3-Chloro-4-methoxyphenyl)-N4-(3,5-dimethoxyphenyl)-5-fluoro-N4-methyl-2,4-pyrimidinediamine] yielded an IC50 [1, 8] of over 10 µM and an IC50 [2, 9] of over 10 µM.
`COc1cc(OC)cc(N(C)c2nc(Nc3ccc(Cl)c(OC)c3)ncc2F)c1` [Compound 405] was tested, and the IC50 [1, 8] was under 10 µM and the IC50 [2, 9] was over 10 µM.
`CNC(=O)c1cc2cccc(Nc3ncc(F)c(N(C)c4cc(OC)cc(OC)c4)n3)c2[nH]1` [Compound 406, N4-(3,5-Dimethoxyphenyl)-5-fluoro-N4-methyl-N2-[2-(N-methylamino)carbonylindol-7-yl]-2,4-pyrimidinediamine] gave an IC50 [1, 8] of under 10 µM and an IC50 [2, 9] of over 10 µM.
`COc1cc(Nc2ncc(F)c(Nc3ccc(OC(C)(C)C(=O)O)c(Cl)c3)n2)cc(OC)c1` [Compound 409, N4-[3-Chloro-4-(hydroxycarbonyl-1,1-dimethylmethyleneoxy)phenyl]-N2-(3,5-dimethoxyphenyl)-5-fluoro-2,4-pyrimidinediamine] showed an IC50 [1, 10] of under 10 µM, an IC50 [1, 11] of under 10 µM and an IC50 ([2]; tryptase) of over 10 µM.
